Here are results for one compound from patent publication US7049080B2, “Process for detecting serine/threonine kinase activity” (priority 2000, dated 2006).

The target of the assay is T1, MKK7 (Homo sapiens, UniProt O14733).
T1 construct: purchased Upstate Biotech 14-366
T1 sequence (O14733 1-419): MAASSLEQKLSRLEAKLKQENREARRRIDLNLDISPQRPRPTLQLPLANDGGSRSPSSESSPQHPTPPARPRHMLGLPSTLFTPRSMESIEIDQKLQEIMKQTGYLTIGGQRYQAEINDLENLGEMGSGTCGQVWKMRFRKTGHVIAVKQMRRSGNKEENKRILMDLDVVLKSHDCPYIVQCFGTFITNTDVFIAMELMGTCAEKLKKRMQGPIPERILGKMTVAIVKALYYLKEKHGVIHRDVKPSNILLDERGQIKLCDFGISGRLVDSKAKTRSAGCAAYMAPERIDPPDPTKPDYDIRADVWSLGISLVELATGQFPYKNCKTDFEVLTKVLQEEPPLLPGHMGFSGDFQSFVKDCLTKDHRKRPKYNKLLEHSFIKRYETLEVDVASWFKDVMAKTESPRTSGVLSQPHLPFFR
Put plainly: Determination of Km for ATP (MKK7 phosphorylation, FP read-out). The assay is classed as biochemical. Particulars: MKK7 80 nM, P1° 100 μM, RT. The method, then:
Efficient phosphorylation of P1^∘ peptide is dependent on the optimal ATP concentration. […] From the detected fluorescence polarization signals, the Michaelis-Menten constant (Km), reflecting the half-maximal phosphorylation rate, was determined for ATP.
Determination of Km for ATP (Read-out: Fluorescence Polarization): […]

In the case of `Nc1ncnc2c1ncn2[C@@H]1O[C@H](COP(=O)(O)OP(=O)(O)OP(=O)(O)O)[C@@H](O)[C@H]1O` [ATP], the Vmax is 0.28 mP/min.
